Measurements reported in patent publication US20220395476A1, “DRUG FOR TREATING ARTERY-RELATED DISEASES, AND USE THEREOF” (SHANGHAI INSTITUTE OF MATERIA MEDICA, CHINESE ACADEMY OF …, priority 2019, published 2022).

Columns and labels:
[1] = system: aneurysm induced by porcine pancreatic elastase in C57BL/6 mice; test: Aneurysm model induced by porcine pancreatic elastase (PPE model); assay type: in vivo, mouse; settings: for diameter of aneurysms: 20 mg/kg intraperitoneal injection from Day 5 for 10 days
Description: (§1) The mouse was anesthetized by intraperitoneal injection of 1% pentobarbital sodium at the dose of 20 mg/kg. After the mouse entering anesthesia state, the abdominal hair was shaved off with a razor and further thoroughly depilated with depilatory cream. The abdomen was dried and the mouse was fixed on the operating table. Its body temperature was kept with a heating pad under the body. The abdominal skin was wiped with iodine and deiodined with 75% ethanol. An incision of about 1.5 cm was cut in the middle of the abdomen. The organs were carefully pushed away with tweezers. Then the intestine was divided to the left and right sides with gauze wetted with 3% penicillin-streptomycin. The connective tissue and muscle tissue on the surface of the aorta were carefully separated with tweezers to fully expose the abdominal aorta.
(§2) Sterilized absorbent paper (0.3 cm×0.3 cm) was fully infiltrated in porcine pancreatic elastase (PPE), and then applied on the exposed abdominal aorta for 50 minutes. A gauze wetted with normal saline containing 3% penicillin-streptomycin was placed on the abdominal incision to prevent the abdominal water from excessive loss. After 50 minutes, the absorbent paper on the aorta was carefully taken away. The abdominal cavity was rinsed with normal saline containing 3% penicillin-streptomycin. The peritoneum and skin were sutured with ⅜ suture needle and 5/0 suture line. After suturing, the wound was wiped with iodine and deiodined with 75% ethanol after 1 min. The mouse was placed into a clean feeding cage and can eat and drink freely.
(§3) Sample Fixation, Dehydration, Paraffin Embedding and Slicing 100 ml of formaldehyde, 4 g of sodium dihydrogen phosphate and 6.5 g of disodium hydrogen phosphate were dissolved in 900 ml of distilled water to prepare a polyoxymethylene fixed solution with a volume ratio of 10%. The aortic tissue was fixed in polyoxymethylene fixation solution for 72 hours, then washed with tap water for 4-6 hrs and placed in the dehydrator. The program was set for automatic dehydration, with 75% ethanol for 1.5 hours, 95% ethanol for 1.5 hours, 100% ethanol for 1.5 hours, dimethylbenzene for 1.5 hours and paraffin for 1.5 hours, successively. The paraffin embedding machine was opened 2 hours in advance to melt paraffin, and the temperature was controlled at 60° C. After the paraffin was melted, the dehydrated aortic tissue was embedded in paraffin. It was poured into the embedding box, and the paraffin soaked tissue block was placed into the embedding frame using heated tweezers and gently moved to the cold table. The paraffin block was taken off for slicing after the paraffin was solidified. Before slicing, the paraffin block was put into refrigerator for pre-cooling. After cooling, the paraffin block was cut into continuous 5 μM-thick paraffin sections using the slicer. The sections were unfolded on warm water at 38° C. in a slide spreader, fished with slides coated with APES, and dried naturally for subsequent histopathological staining.
The tissue was fixed, embedded and cut into 4 μM paraffin sections. […]

[2] = system: aneurysms, intramural hematomas and arterial dissections induced by porcine pancreatic elastase and 1% β-aminopropionitrile in C57BL/6 mice; test: Aneurysm, intramural hematoma and arterial dissection model induced by porcine pancreatic elastase and 1% β-aminopropionitrile (PPE+BAPN model); assay type: in vivo, mouse; settings: for histological analysis of the vessel wall: Day 15
Description: as §1
as §2, with “away. And the” for “away. The”, “feeding cage, fed with 1% β-aminopropionitrile (BAPN) feed” for “feeding cage”, “freely. The feed was changed every other day.” for “freely.”
as §3
The tissue was fixed, embedded and cut into 4 μM paraffin sections. The paraffin sections were firstly baked (65° C., 60 minutes), and then dewaxed to aqueous phase (dimethylbenzene for 15 minutes→absolute ethanol for 5 minutes→95% ethanol for 5 minutes→75% ethanol for 5 minutes→running water for 1 minute); stained with hematoxylin for 15 minutes and then rinsed with running water for 4 minutes; differentiated with 1% ethanol hydrochloride for 5 seconds (the differentiation time was adjusted according to the preparation time of differentiation solution) and rinsed with running water for 5 minutes; then stained with eosin for 1 minute and placed in water for 1 minute; dehydrated and then permeated with dimethylbenzene (75% ethanol for 5 minutes→95% ethanol for 5 minutes→absolute ethanol for 5 minutes→dimethylbenzene for 15 minutes) and sealed with neutral gum.

[3] = evaluated Day 15, vs model control
[4] = 100 mg/kg intraperitoneal injection from Day 5 for 10 days
[5] = 100 mg/kg intraperitoneal injection from Day 5 for 10 days, evaluated Day 15
[6] = 100 mg/kg intragastric administration from Day 5 for 10 days, evaluated Day 15
[7] = 50 mg/kg orally via gavage from Day 5 for 10 days, evaluated Day 15

Compound	histological analysis of the vessel wall [2, 4]	diameter / expansion of aneurysm (maximum blood vessel diameter of arteriopathy site) [2, 5]	occurrence of intramural hematoma and arterial dissection [2, 5]	further results
O=C(O)/C=C/c1ccc(O)c(O)c1 [Caffeic acid]				diameter of aneurysms [1, 3]: significantly reduced the diameter and expansion of aneurysm in mouse (P<0.01)
Cc1ccc(C(C)C)cc1O [Carvacrol]	reduced the thickness of vessel wall and protected the integrity of vessel structure	significantly reduced the diameter of infrarenal aneurysm in mouse (P<0.001)	reduced the occurrence of infrarenal aneurysm, intramural hematoma and arterial dissection in mouse	
O=c1ccc2ccccc2o1 [Coumarin]				diameter of infrarenal aneurysm [2, 6]: significantly reduced the diameter of infrarenal aneurysm in mouse
O=C(O)[C@H](O)Cc1ccc(O)c(O)c1 [Danshensu]				diameter of aneurysms [1, 3]: significantly reduced the diameter and expansion of aneurysm (P<0.01)
C=CCc1ccc(O)c(OC)c1 [Eugenol]		significantly reduced the diameter of infrarenal aneurysm in mouse (P<0.01)	reducing the occurrence of infrarenal artery intramural hematoma and arterial dissection and the arterial rupture in mouse	diameter of infrarenal aneurysm [2, 6]: significantly reduced the diameter of infrarenal aneurysm in mouse (P<0.001); occurrence of infrarenal artery intramural hematoma and arterial dissection [2, 6]: reducing the occurrence of infrarenal artery intramural hematoma and arterial dissection in mouse
COc1cc(/C=C/C(=O)O)ccc1O [Ferulic acid]	protected the integrity of vessel structure, inhibited the degradation of elastic layer, inhibited the occurrence of intramural hematoma	significantly reduced the expansion of aneurysm in mouse (P<0.001)	significantly reduced the occurrence of intramural hematoma and arterial dissection, and the arterial rupture in mouse	diameter of aneurysms [1, 3]: significantly reduce the diameter of aneurysms in mouse (P<0.001)
COC(=O)[C@@H](Cc1ccc(O)c(O)c1)OC(=O)/C=C/c1ccc(O)c(O)c1 [Methyl rosmarinate]	reduced the thickness of vessel wall and protected the integrity of vessel structure		significantly reduced the occurrence of infrarenal aneurism, intramural hematoma and arterial dissection in mouse	
COc1ccc(C(C)=O)c(O)c1 [Paeonol]	reduced the thickness of vessel wall and protected the integrity of vessel structure	significantly reduced the diameter of infrarenal aneurysm in mouse (P<0.001)	reduced the occurrence of infrarenal artery intramural hematoma and arterial dissection in mouse	
O=C(/C=C/c1ccc(O)c(O)c1)OCCc1ccccc1 [Phenethyl caffeate]	reduced the thickness of vessel wall and protected the integrity of vessel structure	significantly reduced the diameter of artery expansion in mouse (P<0.01)	significantly reduced the occurrence of intramural hematoma and arterial dissection, and the arterial rupture in mouse	diameter of infrarenal aneurysms ([1]; 100 mg/kg orally via gavage from Day 5 for 10 days, evaluated Day 15, vs model control): significantly reduced the diameter of infrarenal aneurysms in mouse (P<0.001)
COc1cc(/C=C/C(=O)O)ccc1O [Piperazine ferulate, reference compound]				histological analysis of the vessel wall ([2]; 50 mg/kg orally via gavage from Day 5 for 10 days): reduced the thickness of vessel wall and protected the integrity of vessel structure; expansion of arteries (maximum blood vessel diameter) [2, 7]: significantly reduced the expansion of arteries in mouse (P<0.001); occurrence of aneurysm, intramural hematoma and arterial dissection [2, 7]: significantly reduced the occurrence of aneurysm, intramural hematoma and arterial dissection
COc1cc2ccc(=O)oc2cc1O [Scopoletin]				diameter of infrarenal aneurysm [2, 6]: significantly reduced the diameter of infrarenal aneurysm in mouse
CC(C)(C)C(=O)Oc1ccc(S(=O)(=O)Nc2ccccc2C(=O)NCC(=O)[O-])cc1.[Na+] [Sivelestat sodium, reference compound]				PPE (protective effect) ([1]; aneurysm model induced by porcine pancreatic elastase, mouse): ineffective; PPE + BAPN (protective effect) ([2]; aneurysm model induced by porcine pancreatic elastase and 1% β-aminopropionitrile, mouse): ineffective
O=C(O)/C=C/c1ccc(O)cc1 [p-Coumaric acid]				diameter of infrarenal aneurysm [2, 6]: significantly reduced the diameter of infrarenal aneurysm in mouse
Aspirin eugenol ester	reduced the thickness of vessel wall and protected the integrity of vessel structure		significantly reduced the occurrence of infrarenal artery intramural hematoma and arterial dissection in mouse (P<0.001)	
